Here are results for 17 compounds from patent US9115092B2, “Substituted quinazoline and pyrido-pyrimidine derivatives” (Asana Biosciences, LLC, priority 2010, dated 2015).

In assay [1] the target is T1, PI3Kα (wild-type), P110/P85α (Homo sapiens, UniProt P42336).
T1 construct: made in house; host or cells: SF9 insect cells
Briefly: PI3 Kinase TR-FRET assay, PI3Kα (wild-type). In kind it is biochemical. The method in brief:
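Sf9-expressed His-purified P110/P85α (5 ng) preincubated 60 min RT with compound and PIP2 in buffer with 40 mM MgCl2, 5 mM DTT; reaction started with ATP (PIP2 and ATP both 10 μM), 30 min RT. PIP3 detected by TR-FRET displacement, 665/615 nm ratio; IC50 from dose-response curves.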
On the technique in general: In TR-FRET formats the signal depends on donor and acceptor labels being close together.

The target in a further assay is T2, mTOR kinase (Homo sapiens, UniProt P42345).
T2 construct: purchased Millipore, USA
Briefly: mTOR kinase TR-FRET assay. In kind it is biochemical. The conditions noted are these: read-out: mTO R. In short, it runs like this: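 Compounds preincubated 60 min with mTOR (5 ng) in HEPES pH 7.5, EGTA, MnCl2; ULight-p70 S6K Thr389 peptide (50 nM) and ATP (20 μM) then added, 60 min at room temperature. EDTA-stopped, Eu-anti-phospho antibody detection by TR-FRET (665/615 nm); IC50 from variable-slope sigmoidal fit.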

Assay [2] has as its system pS6RP(S235/236), PC3 cells. Briefly: In-cell Western assay, pS6RP(S235/236) in PC3 cells. In kind it is cell-based, human. The protocol: Cells from human prostate cancer cell line PC3 (American Type Culture Collection (ATCC), Manassas, Va. 20108 USA) were seeded at an optimal density of 22,000 cell/well in 96-well plates containing Ham's F12K medium (90 μL) and incubated overnight. The compound dilutions were carried out in 100% DMSO followed by a dilution in the medium. Test compounds were added in serial dilutions to the wells and incubated for 2 h. The cells were washed and fixed with 4% paraformaldehyde. After incubation at room temperature for 1 h in the dark, blocking was done for 2 h at room temperature. Primary antibodies for phosphorylated (p) AKT(5473) (phosphorylated at serine 473), pAKT(T308) (phosphorylated at threonine 308) and for pS6RP(S235/236) (phosphorylated at serine 235/236) (commercially available from Cell Signaling Technology®, whose protocol was followed for the in-cell western assay, were diluted to the required concentration and added to the corresponding wells followed by overnight incubation at 4° C. Eu-labeled rabbit (PE) (Perkin-Elmer USA catalog #AD0106) secondary antibody was added and incubated for 2 h at room temperature. Delfia® enhancement solution (cat #1244-105, Perkin Elmer USA) was subsequently added to the plate before taking the reading at 615 nm with excitation wavelength of 340 nm, after which 0.5 μg/mL of Hoechst® 33258 dye (Catalog #86140-5, Sigma) was added to the plate and fluorescence emission was read at 460 nm with 355 nm excitation, to evaluate the correction factor. IC50 values were calculated using a sigmoidal dose-response curve fit in GraphPad Prism® v5 software.

Another assay relates to PC3 cells. The assay can be described thus: XTT assay for cell viability, PC3 cells. In kind it is cell-based, human. The conditions noted are these: Homo sapiens, PC-3, cell viability. In short, it runs like this: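 PC3 cells seeded at 1000 cells/well, grown 24 h, then exposed to serial dilutions of compound for 96 h. Viability read by XTT dye at 37° C, absorbance 465 nm. EC50 from sigmoidal dose-response fit.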

Where [3] appears, read: Homo sapiens, PC-3, In-cell Western.

T1 sequence (P42336 whole entry): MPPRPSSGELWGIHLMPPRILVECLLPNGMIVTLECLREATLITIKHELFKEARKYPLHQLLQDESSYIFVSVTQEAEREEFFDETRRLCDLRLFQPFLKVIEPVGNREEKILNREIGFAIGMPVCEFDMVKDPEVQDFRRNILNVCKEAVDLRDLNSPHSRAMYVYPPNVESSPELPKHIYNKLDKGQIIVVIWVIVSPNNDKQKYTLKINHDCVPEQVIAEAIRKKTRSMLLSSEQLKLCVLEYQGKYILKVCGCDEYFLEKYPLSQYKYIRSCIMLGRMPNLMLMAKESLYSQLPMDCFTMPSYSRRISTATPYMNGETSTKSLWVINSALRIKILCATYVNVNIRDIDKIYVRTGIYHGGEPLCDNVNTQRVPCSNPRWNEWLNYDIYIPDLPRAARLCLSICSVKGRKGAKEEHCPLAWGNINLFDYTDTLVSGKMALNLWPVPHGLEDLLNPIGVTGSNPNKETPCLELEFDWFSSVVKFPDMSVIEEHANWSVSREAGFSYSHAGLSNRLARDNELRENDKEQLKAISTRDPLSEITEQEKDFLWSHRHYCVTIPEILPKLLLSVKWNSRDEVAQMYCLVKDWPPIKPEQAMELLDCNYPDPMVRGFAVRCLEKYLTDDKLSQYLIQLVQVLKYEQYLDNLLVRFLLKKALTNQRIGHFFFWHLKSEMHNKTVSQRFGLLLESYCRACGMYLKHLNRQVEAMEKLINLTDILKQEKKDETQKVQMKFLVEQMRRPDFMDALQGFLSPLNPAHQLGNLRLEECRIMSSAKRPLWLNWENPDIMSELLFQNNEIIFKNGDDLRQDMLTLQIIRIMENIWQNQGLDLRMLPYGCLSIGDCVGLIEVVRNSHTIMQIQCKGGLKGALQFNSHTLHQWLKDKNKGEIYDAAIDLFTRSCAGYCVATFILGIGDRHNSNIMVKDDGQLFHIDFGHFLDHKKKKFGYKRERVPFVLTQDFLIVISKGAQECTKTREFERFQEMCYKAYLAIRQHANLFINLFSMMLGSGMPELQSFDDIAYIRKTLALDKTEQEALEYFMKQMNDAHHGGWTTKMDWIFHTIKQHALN
T1 sequence (P27986 whole entry partner): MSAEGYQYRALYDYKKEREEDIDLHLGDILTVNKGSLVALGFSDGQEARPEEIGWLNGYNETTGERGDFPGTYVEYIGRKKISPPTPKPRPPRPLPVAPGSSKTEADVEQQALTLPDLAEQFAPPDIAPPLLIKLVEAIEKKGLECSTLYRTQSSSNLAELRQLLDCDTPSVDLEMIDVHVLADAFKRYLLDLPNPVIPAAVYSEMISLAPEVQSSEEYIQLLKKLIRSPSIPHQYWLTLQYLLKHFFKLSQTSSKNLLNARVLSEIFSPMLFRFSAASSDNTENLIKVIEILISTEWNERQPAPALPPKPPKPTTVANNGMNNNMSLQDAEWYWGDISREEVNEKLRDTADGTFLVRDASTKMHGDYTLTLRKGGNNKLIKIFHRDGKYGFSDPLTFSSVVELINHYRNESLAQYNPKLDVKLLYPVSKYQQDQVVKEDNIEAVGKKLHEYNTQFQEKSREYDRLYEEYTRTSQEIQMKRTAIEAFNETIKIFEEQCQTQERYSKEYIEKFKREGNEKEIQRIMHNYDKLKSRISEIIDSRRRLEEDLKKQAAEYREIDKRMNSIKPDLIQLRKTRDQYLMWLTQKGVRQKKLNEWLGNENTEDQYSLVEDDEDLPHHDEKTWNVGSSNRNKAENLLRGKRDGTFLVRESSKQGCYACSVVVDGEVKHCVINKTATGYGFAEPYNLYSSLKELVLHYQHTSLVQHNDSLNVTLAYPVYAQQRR

For `CN1CCN(C(=O)c2ccc(NC(=O)Nc3ccc(-c4nc(N5CCOCC5)c5ccc(-c6ccncc6)cc5n4)cc3)cc2)CC1` [Example 69, 1-[4-(4-methyl-piperazine-1-carbonyl)-phenyl]-3-[4-(4-morpholin-4-yl-7-pyridin-4-yl-quinazolin-2-yl)-phenyl]-urea], the IC50 in assay [1] was less than 50 nM; at mTOR kinase, less than 50 nM; in assay [2] (setting [3]), less than 100 nM; in the assay on PC3 cells it was 100 to 500 nM.

As for `Cc1ccncc1-c1ccc2c(N3CCOCC3)nc(-c3ccc(NC(=O)Nc4ccc(C(=O)N5CCC(N(C)C)CC5)cc4)cc3)nc2c1` [Example 193, 1-(4-(4-(dimethylamino)piperidine-1-carbonyl)phenyl)-3-(4-(7-(4-methylpyridin-3-yl)-4-morpholino-quinazolin-2-yl)phenyl)urea], the IC50 was less than 50 nM in assay [1], less than 50 nM at mTOR kinase, 201 to 10000 nM in assay [2] (setting [3]) and 201 to 10000 nM in the assay on PC3 cells.

In the case of `CN(C)C(=O)c1ccc(NC(=O)Nc2ccc(-c3nc(N4CCOCC4)c4ccc(-c5cnn(C)c5)cc4n3)cn2)cc1` [Example 55, N,N-dimethyl-4-(3-{5-[7-(1-methyl-1H-pyrazol-4-yl)-4-morpholin-4-yl-quinazolin-2-yl]-pyridin-2-yl}-ureido)-benzamide], the IC50 is less than 50 nM in assay [1], less than 50 nM on mTOR kinase, less than 100 nM in assay [2] (setting [3]) and 100 to 500 nM in the assay with PC3 cells.

With `CN(C)C(=O)c1ccc(NC(=O)Nc2ccc(-c3nc(N4CCOCC4)c4ncc(-c5cccnc5F)cc4n3)c(F)c2)cc1` [Example 244, 4-(3-(3-fluoro-4-(7-(2-fluoropyridin-3-yl)-4-morpholino-pyrido[3,2-d]pyrimidin-2-yl)phenyl)ureido)-N,N-dimethyl-benzamide], the IC50 in assay [1] was less than 50 nM; on mTOR kinase, less than 50 nM; in assay [2] (setting [3]), 201 to 10000 nM; in the assay on PC3 cells it was 201 to 10000 nM.

In the case of `CN(C)C(=O)c1ccc(NC(=O)Nc2ccc(-c3nc(N4CCOCC4)c4ccc(-c5ccncc5F)cc4n3)cc2)cc1` [Example 65, 4-(3-{4-[7-(3-fluoro-pyridin-4-yl)-4-morpholin-4-yl-quinazolin-2-yl]-phenyl}-ureido)-N,N-dimethyl-benzamide], the IC50 was less than 50 nM in assay [1], less than 50 nM at mTOR kinase, less than 100 nM in assay [2] (setting [3]) and 100 to 500 nM in the assay with PC3 cells.

As for `CN(C)Cc1ccc(-c2ccc3c(N4CCOCC4)nc(-c4ccc(NC(=O)Nc5ccc(C(=O)N(C)C)cc5)cc4)nc3c2)o1` [Example 190, 4-(3-(4-(7-(5-((dimethylamino)methyl)furan-2-yl)-4-morpholino-quinazolin-2-yl)phenyl)ureido)-N,N-dimethyl-benzamide], the IC50 in assay [1] was 50 to 200 nM; at mTOR kinase it was less than 50 nM; in assay [2] (setting [3]), 201 to 10000 nM; in the assay on PC3 cells, 201 to 10000 nM.

Consider `CN(C)C(=O)c1ccc(NC(=O)Nc2ccc(-c3nc(N4CCOCC4)c4ccc(-c5ccc(CO)o5)cc4n3)cc2F)cc1` [Example 203, 4-(3-(2-fluoro-4-(7-(5-(hydroxymethyl)furan-2-yl)-4-morpholino-quinazolin-2-yl)phenyl)ureido)-N,N-dimethyl-benzamide], for which the IC50 is less than 50 nM in assay [1], less than 50 nM on mTOR kinase, 201 to 10000 nM in assay [2] (setting [3]) and 201 to 10000 nM in the assay with PC3 cells.

For the compound `CNC(=O)c1ccc(NC(=O)Nc2ccc(-c3nc(N4CCOCC4)c4ccc(-c5cncnc5)cc4n3)cc2)cc1` [Example 88, N-methyl-4-(3-(4-(4-morpholino-7-(pyrimidin-5-yl)quinazolin-2-yl)phenyl)ureido)-benzamide], the IC50 is 50 to 200 nM in assay [1], less than 50 nM on mTOR kinase, less than 100 nM in assay [2] (setting [3]) and 201 to 10000 nM with PC3 cells.

Regarding `CN(C)CCNC(=O)c1ccc(NC(=O)Nc2ccc(-c3nc(N4CCOCC4)c4ccc(-c5cncnc5)cc4n3)cc2F)cc1` [Example 217, N-(2-(dimethylamino)ethyl)-4-(3-(2-fluoro-4-(4-morpholino-7-(pyrimidin-5-yl)quinazolin-2-yl)phenyl)ureido)-benzamide], the IC50 in assay [1] is less than 50 nM; on mTOR kinase it was less than 50 nM; in assay [2] (setting [3]), 201 to 10000 nM; in the assay on PC3 cells, 201 to 10000 nM.

Regarding `COc1cccc(-c2ccc3c(N4CCOCC4)nc(-c4ccc(NC(=O)Nc5ccc(C(=O)N(C)C)cc5)cc4)nc3c2)n1` [Example 95, 4-(3-(4-(7-(6-methoxypyridin-2-yl)-4-morpholino-quinazolin-2-yl)phenyl)ureido)-N,N-dimethyl-benzamide], the IC50 in assay [1] is 50 to 200 nM; at mTOR kinase, 50 to 200 nM; in assay [2] (setting [3]) it was 501 to 5000 nM; in the assay with PC3 cells, less than 100 nM.

With `CN(C)C(=O)c1ccc(NC(=O)Nc2ccc(-c3nc(N4CCOCC4)c4ccc(-c5cncnc5)cc4n3)cc2F)cn1` [Example 123, 5-(3-(2-fluoro-4-(4-morpholino-7-(pyrimidin-5-yl)quinazolin-2-yl)phenyl)ureido)-N,N-dimethylpicolinamide], the IC50 is 50 to 200 nM in assay [1], less than 50 nM at mTOR kinase, 201 to 10000 nM in assay [2] (setting [3]) and 201 to 10000 nM in the assay on PC3 cells.

Regarding `CN(C)C1CCN(C(=O)c2ccc(NC(=O)Nc3ccc(-c4nc(N5CCOCC5)c5ncc(-c6cnn(C)c6)cc5n4)cc3)cc2)C1` (stereo in doubt) [Example 185, (S)-1-(4-(3-(dimethylamino)pyrrolidine-1-carbonyl)phenyl)-3-(4-(7-(1-methyl-1H-pyrazol-4-yl)-4-morpholino-pyrido[3,2-d]pyrimidin-2-yl)phenyl)urea], the figures for the IC50 (in assay [1]; on mTOR kinase; in assay [2] (In-cell Western)) were less than 50 nM, less than 50 nM and 201 to 10000 nM, respectively.

Regarding `Cc1ccc(-c2ccc3c(N4CCOCC4)nc(-c4ccc(NC(=O)Nc5ccc(C(=O)N6CC[C@@H](N(C)C)C6)cc5)cc4)nc3c2)o1` [Example 196, (R)-1-(4-(3-(dimethylamino)pyrrolidine-1-carbonyl)phenyl)-3-(4-(7-(5-methylfuran-2-yl)-4-morpholino-quinazolin-2-yl)phenyl)urea], the results for the IC50 (in assay [1]; at mTOR kinase; in assay [2] (setting [3])) were 50 to 200 nM, less than 50 nM and less than 100 nM, respectively.

As to `CN(C)C1CCN(C(=O)c2ccc(NC(=O)Nc3ccc(-c4nc(N5CCOCC5)c5ncc(-c6cnn(C)c6)cc5n4)cc3F)cc2)C1` (stereo in doubt) [Example 210, (S)-1-(4-(3-(dimethylamino)pyrrolidine-1-carbonyl)phenyl)-3-(2-fluoro-4-(7-(1-methyl-1H-pyrazol-4-yl)-4-morpholino-pyrido[3,2-d]pyrimidin-2-yl)phenyl)urea], the figures for the IC50 (in assay [1]; at mTOR kinase; in assay [2] (In-cell Western)) were less than 50 nM, less than 50 nM and 201 to 10000 nM, respectively.

`CN(C)C1CCN(C(=O)c2ccc(NC(=O)Nc3ccc(-c4nc(N5CCOCC5)c5ccc(-c6cncnc6)cc5n4)cc3)cc2)C1` (stereo in doubt) [Example 188, (S)-1-(4-(3-(dimethylamino)pyrrolidine-1-carbonyl)phenyl)-3-(4-(4-morpholino-7-(pyrimidin-5-yl)quinazolin-2-yl)phenyl)urea]: the IC50 in assay [1] was less than 50 nM; on mTOR kinase, less than 50 nM; in assay [2] (In-cell Western), 201 to 10000 nM.

As to `N[C@@H]1CCN(C(=O)c2ccc(NC(=O)Nc3ccc(-c4nc(N5CCOCC5)c5ccc(-c6cncnc6)cc5n4)cc3F)cc2)C1` [Example 209, (R)-1-(4-(3-aminopyrrolidine-1-carbonyl)phenyl)-3-(2-fluoro-4-(4-morpholino-7-(pyrimidin-5-yl)quinazolin-2-yl)phenyl)urea], the IC50 in assay [1] was less than 50 nM; at mTOR kinase, less than 50 nM; in assay [2] (In-cell Western), 201 to 10000 nM.

`CN(C)[C@@H]1CCN(C(=O)c2ccc(NC(=O)Nc3ccc(-c4nc(N5CCOCC5)c5cc(F)c(-c6cccnc6)cc5n4)cc3)cc2)C1` [Example 200, (R)-1-(4-(3-(dimethylamino)pyrrolidine-1-carbonyl)phenyl)-3-(4-(6-fluoro-4-morpholino-7-(pyridin-3-yl)quinazolin-2-yl)phenyl)urea]: the IC50 was less than 50 nM in assay [1], less than 50 nM on mTOR kinase and 201 to 10000 nM in assay [2] (In-cell Western).
